Assay results from the NIST ThermoML archive (doi:10.1021/je700438d).
± gives the expanded uncertainty stated by the source.

Assay: mn = molality of the nth substance listed, in mol/kg
Settings: Liquid, Vibrating tube method

[Cl-].[Li+] [lithium chloride] + CCO
mass density (373.15 K, 30260 kPa, m1 = 0.1049): 753.85 ± 0.56 kg/m3
mass density (373.15 K, 30410 kPa, m1 = 1.222): 789.12 ± 0.53 kg/m3
mass density (373.15 K, 35160 kPa, m1 = 0.3023): 764.94 ± 0.58 kg/m3
mass density (373.15 K, 35410 kPa, m1 = 2.022): 814.8 ± 0.52 kg/m3
mass density (373.15 K, 35740 kPa, m1 = 2.88): 836.3 ± 0.51 kg/m3
mass density (373.15 K, 35840 kPa, m1 = 0.1049): 759.05 ± 0.59 kg/m3
mass density (373.15 K, 35840 kPa, m1 = 1.222): 793.28 ± 0.55 kg/m3
mass density (373.15 K, 35980 kPa, m1 = 0.5873): 774.65 ± 0.57 kg/m3
mass density (373.15 K, 39820 kPa, m1 = 1.222): 796.01 ± 0.57 kg/m3
mass density (373.15 K, 39910 kPa, m1 = 0.1049): 762.54 ± 0.61 kg/m3
mass density (373.15 K, 39960 kPa, m1 = 0.3023): 768.9 ± 0.6 kg/m3
mass density (373.15 K, 39970 kPa, m1 = 0.5873): 777.73 ± 0.59 kg/m3
mass density (373.15 K, 39970 kPa, m1 = 2.022): 817.45 ± 0.54 kg/m3
mass density (373.15 K, 39980 kPa, m1 = 2.88): 839.22 ± 0.52 kg/m3
mass density (398.15 K, 680 kPa, m1 = 0.3023): 696.61 ± 0.43 kg/m3
mass density (398.15 K, 740 kPa, m1 = 0.1049): 688.68 ± 0.44 kg/m3
mass density (398.15 K, 740 kPa, m1 = 2.022): 758.72 ± 0.42 kg/m3
mass density (398.15 K, 960 kPa, m1 = 1.222): 731.58 ± 0.43 kg/m3
mass density (398.15 K, 1010 kPa, m1 = 2.88): 785.44 ± 0.42 kg/m3
mass density (398.15 K, 1020 kPa, m1 = 0.5873): 708.33 ± 0.43 kg/m3
mass density (398.15 K, 4860 kPa, m1 = 1.222): 737.73 ± 0.44 kg/m3
mass density (398.15 K, 5010 kPa, m1 = 0.1049): 695.99 ± 0.45 kg/m3
mass density (398.15 K, 5030 kPa, m1 = 2.022): 765.06 ± 0.43 kg/m3
mass density (398.15 K, 5070 kPa, m1 = 0.3023): 704.02 ± 0.45 kg/m3
mass density (398.15 K, 5070 kPa, m1 = 2.88): 790.37 ± 0.43 kg/m3
mass density (398.15 K, 5740 kPa, m1 = 0.5873): 716.08 ± 0.45 kg/m3
mass density (398.15 K, 9680 kPa, m1 = 1.222): 744.82 ± 0.46 kg/m3
mass density (398.15 K, 10060 kPa, m1 = 0.3023): 711.93 ± 0.47 kg/m3
mass density (398.15 K, 10060 kPa, m1 = 0.5873): 722.74 ± 0.47 kg/m3
mass density (398.15 K, 10140 kPa, m1 = 2.88): 796.07 ± 0.44 kg/m3
mass density (398.15 K, 10420 kPa, m1 = 2.022): 772.34 ± 0.45 kg/m3
mass density (398.15 K, 10450 kPa, m1 = 0.1049): 704.75 ± 0.48 kg/m3
mass density (398.15 K, 15060 kPa, m1 = 1.222): 752.07 ± 0.48 kg/m3
mass density (398.15 K, 15060 kPa, m1 = 2.022): 778 ± 0.47 kg/m3
mass density (398.15 K, 15090 kPa, m1 = 0.3023): 719.36 ± 0.5 kg/m3
mass density (398.15 K, 15280 kPa, m1 = 2.88): 801.31 ± 0.46 kg/m3
mass density (398.15 K, 15420 kPa, m1 = 0.1049): 712.2 ± 0.5 kg/m3
mass density (398.15 K, 15960 kPa, m1 = 0.5873): 731.15 ± 0.49 kg/m3
mass density (398.15 K, 20010 kPa, m1 = 2.88): 805.83 ± 0.47 kg/m3
mass density (398.15 K, 20090 kPa, m1 = 0.1049): 718.73 ± 0.53 kg/m3
mass density (398.15 K, 20140 kPa, m1 = 0.3023): 726.27 ± 0.52 kg/m3
mass density (398.15 K, 20350 kPa, m1 = 0.5873): 736.9 ± 0.52 kg/m3
mass density (398.15 K, 20470 kPa, m1 = 1.222): 758.65 ± 0.5 kg/m3
mass density (398.15 K, 20740 kPa, m1 = 2.022): 784.18 ± 0.49 kg/m3
mass density (398.15 K, 25230 kPa, m1 = 0.3023): 732.68 ± 0.55 kg/m3
mass density (398.15 K, 25320 kPa, m1 = 2.88): 810.7 ± 0.49 kg/m3
mass density (398.15 K, 25420 kPa, m1 = 0.5873): 742.99 ± 0.54 kg/m3
mass density (398.15 K, 25610 kPa, m1 = 2.022): 788.8 ± 0.51 kg/m3
mass density (398.15 K, 25620 kPa, m1 = 1.222): 764.26 ± 0.53 kg/m3
mass density (398.15 K, 25840 kPa, m1 = 0.1049): 726.13 ± 0.56 kg/m3
mass density (398.15 K, 30050 kPa, m1 = 0.5873): 748.05 ± 0.57 kg/m3
mass density (398.15 K, 30070 kPa, m1 = 0.3023): 738.24 ± 0.58 kg/m3
mass density (398.15 K, 30070 kPa, m1 = 2.88): 814.57 ± 0.5 kg/m3
mass density (398.15 K, 30090 kPa, m1 = 2.022): 792.51 ± 0.52 kg/m3
mass density (398.15 K, 30150 kPa, m1 = 0.1049): 731.22 ± 0.59 kg/m3
mass density (398.15 K, 30410 kPa, m1 = 1.222): 768.9 ± 0.55 kg/m3
mass density (398.15 K, 34950 kPa, m1 = 0.5873): 752.88 ± 0.59 kg/m3
mass density (398.15 K, 34980 kPa, m1 = 2.88): 818 ± 0.52 kg/m3
mass density (398.15 K, 35240 kPa, m1 = 0.3023): 743.62 ± 0.61 kg/m3
mass density (398.15 K, 35810 kPa, m1 = 2.022): 796.49 ± 0.55 kg/m3
mass density (398.15 K, 35860 kPa, m1 = 0.1049): 737.37 ± 0.62 kg/m3
mass density (398.15 K, 35950 kPa, m1 = 1.222): 773.57 ± 0.57 kg/m3
mass density (398.15 K, 39860 kPa, m1 = 0.1049): 741.26 ± 0.65 kg/m3
mass density (398.15 K, 39920 kPa, m1 = 0.5873): 757.22 ± 0.62 kg/m3
mass density (398.15 K, 39940 kPa, m1 = 1.222): 776.48 ± 0.59 kg/m3
mass density (398.15 K, 39940 kPa, m1 = 2.022): 798.83 ± 0.56 kg/m3
mass density (398.15 K, 39970 kPa, m1 = 0.3023): 748.04 ± 0.64 kg/m3
mass density (398.15 K, 39980 kPa, m1 = 2.88): 821.9 ± 0.54 kg/m3
